Measurements reported in publication PMC2810346 (Journal of the American Chemical Society, 2010).
Each block holds one compound with its values, some of them ahead of it. Peptide text beside a SMILES is read from it.

What was measured:
[1] = molecular target: GST-p300 (p300 CH1 domain) (Homo sapiens, UniProt Q09472); test: Isothermal titration microcalorimetry; type: binding; details: for affinity for GST-p300 (in words): isothermal titration microcalorimetry
[2] = test system: HIF-1α induced transcription of VEGF gene in HeLa cells; details: ref [18]; cited from earlier work
[3] = type: physicochemical; details: 10% trifluoroethanol in phosphate buffered saline (pH 6.3); for % helicity: circular dichroism, estimated from mean residue ellipticity at 222 nm
[4] = test system: HIF-1α induced transcription of VEGF gene in HeLa cells; type: cell-based; details: qRT-PCR, hypoxic conditions (DFO), 12 and 24 h incubation
[5] = test system: cell density and population doubling; test: Cell viability assay; type: cell-based; details: monitored up to 72 h, 1 μM peptide, 200 nM chetomin
[6] = test system: GST-p300; CH1 domains of CBP (or p300); test: CD spectrum of GST-p300 / CH1 structural change on addition of compound; details: circular dichroism of GST-p300 with HBS 2 added

Chain of GST-p300 (p300 CH1 domain) (Q09472 331-417 limits assumed): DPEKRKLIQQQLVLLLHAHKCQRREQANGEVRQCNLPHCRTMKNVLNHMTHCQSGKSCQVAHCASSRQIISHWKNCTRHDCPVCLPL

Kd [1]: 825 ± 50 nM
SMILES: CC(=O)N[C@H](C(=O)N[C@@H](C)C(=O)N[C@@H](C)C(=O)N[C@@H](CC(=O)O)C(=O)N[C@@H](CS)C(=O)N[C@@H](CCC(=O)O)C(=O)N[C@@H](Cc1ccc(O)cc1)C(=O)N[C@@H](CC(N)=O)C(=O)N[C@@H](C)C(=O)N[C@@H](CCCNC(=N)N)C(=O)O)[C@@H](C)O [compound 4] (Ac-TAADCEYNAR-OH)

SMILES: CN1C(=O)[C@]2(Cc3cn([C@]45C[C@@]67SS[C@@](CO)(C(=O)N6[C@H]4Nc4ccccc45)N(C)C7=O)c4ccccc34)SS[C@@]1(CO)C(=O)N2C [chetomin]
inhibition of VEGF transcription, literature (in words) [2]: known potent inhibitor of VEGF transcription

% helicity [3]: 40% | affinity for GST-p300 (in words) [1]: submicromolar affinity
SMILES: C[C@H](NC(=O)[C@H](CC(N)=O)NC(=O)[C@H](Cc1ccc(O)cc1)NC(=O)[C@H](CCC(=O)O)NC(=O)[C@H](CS)NC(=O)[C@H](CC(=O)O)NC(=O)[C@H](C)N1C/C=C/CCC(=O)N[C@@H]([C@@H](C)O)C(=O)N[C@@H](C)C1=O)C(N)=O [compound 1]
inhibition of VEGF transcription (in words) [4]: did not show measurable inhibition of transcription

SMILES: C[C@H](NC(=O)[C@H](CC(N)=O)NC(=O)[C@H](Cc1ccc(O)cc1)NC(=O)[C@H](CCC(=O)O)NC(=O)[C@H](CS)NC(=O)[C@H](CC(=O)O)NC(=O)[C@H](C)N1C/C=C/CCC(=O)N[C@@H]([C@@H](C)O)C(=O)N[C@@H](C)C1=O)C(=O)N[C@@H](CCCNC(=N)N)C(N)=O [compound 2]
solution conformation by CD (in words) ([3]; listed as HBS 2): more helical than HBS 1 | % helicity [3]: 53% | cytotoxicity (in words) [5]: does not display significant cytotoxicity | effect on CD spectrum of GST-p300 (in words) [6]: does not alter the CD spectrum of GST-p300 | affinity for GST-p300 (in words) [1]: does not have a detrimental effect on the ability of HBS 2 to bind GST-p300
